Test results reported in the NIST ThermoML archive (doi:10.1021/je400622g).
Numbers after ± are expanded uncertainties.

Columns and labels:
[1] = Liquid; for mass density: 298.15 K, Vibrating tube method
[2] = refractive index (Na D-line) (dimensionless); conditions: 298.15 K; 101.33 kPa; Liquid; Standard Abbe refractometry
[3] = xn = mol fraction of the nth substance listed; conditions: 298.15 K, Liquid, Vibrating tube method

CCOC(C)=O [ethyl acetate]
Conditions | mass density [kg/m3] | refractive index
[1] | 894.5 ± 0.2 | –
[2] | – | 1.3698 ± 0.0005

Conditions | vapor or sublimation pressure [kPa]
[1], 417.02 K, Ebulliometric method (Recirculating still) | 600 ± 8.4

Conditions | Normal boiling temperature [°C]
[1], Ebulliometric method (Recirculating still) | 77.04 ± 0.3

CCOC(C)=O [ethyl acetate] + CCCO
[3]
Conditions | mass density [kg/m3]
x1 = 0.0442 | 804.5 ± 0.3
x1 = 0.0911 | 809.6 ± 0.3
x1 = 0.1433 | 815.2 ± 0.3
x1 = 0.201 | 821.3 ± 0.3
x1 = 0.2417 | 825.5 ± 0.3
x1 = 0.2986 | 831.4 ± 0.3
x1 = 0.3435 | 835.9 ± 0.3
x1 = 0.4654 | 847.6 ± 0.2
x1 = 0.5534 | 855.8 ± 0.2
x1 = 0.6461 | 864.2 ± 0.2
x1 = 0.6917 | 868.2 ± 0.2
x1 = 0.7647 | 874.5 ± 0.2
x1 = 0.8037 | 877.9 ± 0.2
x1 = 0.8347 | 880.5 ± 0.2
x1 = 0.8535 | 882.1 ± 0.2
x1 = 0.9053 | 886.4 ± 0.2
x1 = 0.9649 | 891.4 ± 0.2
x1 = 1 | 894.5 ± 0.2

COC(C)=O [methyl ethanoate]
Conditions | vapor or sublimation pressure [kPa]
[1], 393.01 K, Ebulliometric method (Recirculating still) | 600 ± 8.7

CCCO [propan-1-ol]
Conditions | mass density [kg/m3]
[1] | 799.6 ± 0.3

Conditions | vapor or sublimation pressure [kPa]
[1], 427.2 K, Ebulliometric method (Recirculating still) | 600 ± 8.7

CCCO [propan-1-ol] + CCCOC(C)=O
Conditions | mass density [kg/m3]
[3], x2 = 0 | 799.6 ± 0.3

CCCO [propan-1-ol] + CCOC(C)=O
Conditions | mass density [kg/m3]
[3], x2 = 0 | 799.6 ± 0.3

CCCOC(C)=O [propyl ethanoate]
Conditions | mass density [kg/m3]
[1] | 882.4 ± 0.2

Conditions | vapor or sublimation pressure [kPa]
[1], 446.02 K, Ebulliometric method (Recirculating still) | 600 ± 8.4

CCCOC(C)=O [propyl ethanoate] + CCCO
[3]
Conditions | mass density [kg/m3]
x1 = 0.0544 | 805.9 ± 0.3
x1 = 0.0997 | 810.9 ± 0.3
x1 = 0.1515 | 816.5 ± 0.3
x1 = 0.1951 | 821 ± 0.3
x1 = 0.2503 | 826.4 ± 0.3
x1 = 0.3164 | 832.6 ± 0.3
x1 = 0.3481 | 835.4 ± 0.3
x1 = 0.4144 | 841.2 ± 0.3
x1 = 0.4959 | 847.9 ± 0.2
x1 = 0.5463 | 851.8 ± 0.2
x1 = 0.6051 | 856.2 ± 0.2
x1 = 0.6968 | 862.8 ± 0.2
x1 = 0.7528 | 866.6 ± 0.2
x1 = 0.7893 | 869 ± 0.2
x1 = 0.7984 | 869.7 ± 0.2
x1 = 0.8531 | 873.2 ± 0.2
x1 = 0.8873 | 875.4 ± 0.2
x1 = 0.9521 | 879.4 ± 0.2
x1 = 1 | 882.4 ± 0.2
